Consider one compound from US9617225B2 (VIROSTATICS SRL, priority 2012, dated 2017).

Data set [1] addresses human CDK9/CyclinT kinase complex (Homo sapiens (Human), UniProt P50750). Briefly: In Vitro CDK9/CyclinT Assay (IMAP fluorescent polarization). In kind it is biochemical. To be noted: Table 1. Put shortly: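 Phosphorylation of 400 nM TAMRA-Rbtide (15-mer retinoblastoma-derived peptide) by 5 nM CDK9/CyclinT with 12 μM ATP (=Kmapp) in 20 mM MOPS pH 7, 1 mM DTT, 10 mM MgCl2, 0.01% Tween 20. Reaction run 1 hour at room temperature, stopped with IMAP beads; read by fluorescence polarization.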

In data set [2] the test system is laboratory strain of HIV-1. Briefly: Antiviral Activity Against HIV (AV), p24 in infected activated primary T cells. In kind it is cell-based. To be noted: Human immunodeficiency virus 1, T-cell, read-out: AV50 (μM). As to the method:
Antiviral Activity Against HIV (AV)
Activated primary T cells are infected with a laboratory strain of HIV-1, then cultured and exposed to different concentrations of the test compounds. HIV replication is analysed by measuring the viral protein p24 and expressed as percentage of untreated control. Inhibition of viral replication (AV) is then calculated (AV=100 minus the % p24 compared to control, AV of control=0%). Inhibitory concentration 50% for antiviral activity (AV50) is calculated.

Data set [3] deals with Primary T cells. Briefly: Antiproliferative Activity (AP), mitotic index by flow cytometry. Format: cell-based. To be noted: T-cell, read-out: AP50 (μM). As to the method: Antiproliferative Activity (AP)
Primary T cells are cultured and exposed to different concentrations of the test compounds. Cell proliferation is analysed by measuring mitotic index (ie the number of cell divisions a population of cells undergoes) through flow cytometry based techniques. Mitotic index is expressed as percentage of untreated control. Inhibition of cell proliferation (AP) is then calculated (AP=100 minus % mitotic index compared to control, AP of control=0%). Inhibitory concentration 50% for antiproliferative capacity (AP50) is calculated.

Data set [4] relates to Primary T cells. As to the kind of experiment: Cytotoxicity, viability by flow cytometry. Format: cell-based. The method, then: Primary T cells are cultured and treated with different concentrations of the test compound. Viability is analysed by measuring through flow cytometry based techniques the percentage of viable cells, compared to untreated control=100%).

Where only a bound is given, the exact number is not on record here.

human CDK9/CyclinT kinase complex, sequence (P50750 whole entry): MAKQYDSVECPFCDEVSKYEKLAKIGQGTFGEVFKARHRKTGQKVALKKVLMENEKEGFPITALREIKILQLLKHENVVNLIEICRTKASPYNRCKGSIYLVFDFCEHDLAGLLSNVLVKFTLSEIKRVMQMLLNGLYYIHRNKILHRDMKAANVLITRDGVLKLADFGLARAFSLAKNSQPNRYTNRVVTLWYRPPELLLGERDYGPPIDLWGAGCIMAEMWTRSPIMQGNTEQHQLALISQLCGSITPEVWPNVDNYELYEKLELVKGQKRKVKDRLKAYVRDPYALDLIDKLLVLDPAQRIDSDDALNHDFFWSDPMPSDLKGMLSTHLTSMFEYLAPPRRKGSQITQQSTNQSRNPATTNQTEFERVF
human CDK9/CyclinT kinase complex, sequence (O60563 whole entry partner): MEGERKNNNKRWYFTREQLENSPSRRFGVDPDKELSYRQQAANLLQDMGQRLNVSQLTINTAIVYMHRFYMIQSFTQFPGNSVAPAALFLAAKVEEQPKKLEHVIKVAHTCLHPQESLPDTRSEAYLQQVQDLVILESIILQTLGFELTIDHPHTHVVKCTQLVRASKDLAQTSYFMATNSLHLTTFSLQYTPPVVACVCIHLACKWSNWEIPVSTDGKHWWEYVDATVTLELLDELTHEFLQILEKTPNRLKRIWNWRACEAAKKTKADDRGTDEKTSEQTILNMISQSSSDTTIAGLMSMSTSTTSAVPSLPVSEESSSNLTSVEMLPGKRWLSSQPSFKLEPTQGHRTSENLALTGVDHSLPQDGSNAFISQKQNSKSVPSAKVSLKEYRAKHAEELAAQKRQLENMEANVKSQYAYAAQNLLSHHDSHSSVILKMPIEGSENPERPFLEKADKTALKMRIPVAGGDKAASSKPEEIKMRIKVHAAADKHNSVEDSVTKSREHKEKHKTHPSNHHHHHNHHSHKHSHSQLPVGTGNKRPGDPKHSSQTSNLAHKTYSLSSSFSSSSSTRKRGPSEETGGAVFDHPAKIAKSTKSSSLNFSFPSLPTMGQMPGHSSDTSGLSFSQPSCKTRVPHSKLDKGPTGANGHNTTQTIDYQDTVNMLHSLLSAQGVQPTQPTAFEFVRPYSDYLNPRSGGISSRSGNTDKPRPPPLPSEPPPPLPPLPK

As for `CNCc1cc(Nc2cc(-c3ccccc3OC)ncn2)ccc1OC` [Example 37, N-(4-Methoxy-3-((methylamino)methyl)phenyl)-6-(2-methoxyphenyl)pyrimidin-4-amine], the IC50 in data set [1] was less than 100 nM; in data set [2] it was greater than 1.5 µM; in data set [3], 2 µM. Moreover, in data set [4], the “TD50” value stood at 2 µM.
